The Deep4Chem optical property database
Values belong to the compound of their own block, whether it stands above or below them.

Test: photoluminescence quantum yield (fraction); solvent given as SMILES

SMILES: Cc1cc(C(F)(F)F)nc2c1ccc1nc(-c3ccc(Cl)cc3)cn12
photoluminescence quantum yield (in CC#N): 0.84
photoluminescence quantum yield (in CCCCOC(C)=O): 0.76
photoluminescence quantum yield (in CCOC(C)=O): 0.9
photoluminescence quantum yield (in CO): 0.78
photoluminescence quantum yield (in ClC(Cl)Cl): 0.64
photoluminescence quantum yield (in c1ccccc1): 0.88

SMILES: CCC1=C(C)C2=C(c3c4ccccc4c(-c4ccccc4)c4ccccc34)c3c(C)c(CC)c(C)n3[B-](F)(F)[N+]2=C1C
photoluminescence quantum yield (in CC#N): 0.422
photoluminescence quantum yield (in CCCCCC): 0.903
photoluminescence quantum yield (in CCO): 0.804
photoluminescence quantum yield (in CN(C)C=O): 0.648
photoluminescence quantum yield (in Cc1ccccc1): 0.858
photoluminescence quantum yield (in ClCCl): 0.833

photoluminescence quantum yield (in CCO): 0.39
photoluminescence quantum yield (in ClC(Cl)Cl): 0.19
SMILES: COc1ccc2c(-c3nc(-c4ccccc4Cl)no3)cc(=O)oc2c1

photoluminescence quantum yield (in ClC(Cl)Cl): 0.17
SMILES: Cc1ccc(C(=O)/N=c2\oc3cccc4c5c(-c6ccccc6)oc6cccc(c(c2-c2ccccc2)c34)c65)cc1

photoluminescence quantum yield (in CC#N): 0.44
photoluminescence quantum yield (in CCCCCC): 0.34
photoluminescence quantum yield (in CCOC(C)=O): 0.36
photoluminescence quantum yield (in CO): 0.42
photoluminescence quantum yield (in ClCCl): 0.43
SMILES: CCCSC1=[N+]2C(=C(c3ccccc3)c3ccc(SCCC)n3[B-]2(F)F)C=C1

photoluminescence quantum yield (in ClCCl): 0.01
SMILES: CN(C)c1ccc(-c2cc3c(s2)c(C(=O)c2ccccc2)cc(=O)n3Cc2ccccc2)cc1

photoluminescence quantum yield (in C1CCOC1): 0.11
photoluminescence quantum yield (in CC#N): 0.03
photoluminescence quantum yield (in CCCCCC): 0.37
SMILES: CC(O)CC1=N/C(=C\c2cccc(N(C)C)c2)C(=O)N1C (stereo unspecified)

photoluminescence quantum yield (in ClCCl): 0.31
SMILES: O=c1c2ccccc2n(-c2ccc(-c3ccc(-n4c5ccccc5c(=O)c5ccccc54)cc3)cc2)c2ccccc12

photoluminescence quantum yield (in CCCCCC): 0.96
photoluminescence quantum yield (in CO): 1
photoluminescence quantum yield (in ClCCl): 0.89
SMILES: CC1=C2C=CC(C)=[N+]2[B-](F)(F)n2cccc21

photoluminescence quantum yield (in C1CCOC1): 0.53
SMILES: CCCCCOc1cc2oc(=O)c3c4ccc(N(c5ccc(C)cc5)c5ccc(C)cc5)cc4c4ccc5cccc6c(c1)c2c3c4c56

photoluminescence quantum yield (in ClCCl): 0.15
SMILES: CC(C)[Si](C#Cc1c2cc3ccccc3cc2c(C#C[Si](C(C)C)(C(C)C)C(C)C)c2cc3ccccc3cc12)(C(C)C)C(C)C

SMILES: c1ccc(-c2cc(-c3ccccc3)cc(-c3ccc4c(c3)C3(c5ccccc5-4)c4ccccc4-c4c3c3c5ccccc5c(-c5cc(-c6ccccc6)cc(-c6ccccc6)c5)cc3c3ccccc43)c2)cc1 (stereo unspecified)
photoluminescence quantum yield (in Cc1ccccc1): 0.87

SMILES: CCCCCCCCN1c2ccc(C#Cc3ccc(C(F)(F)F)cc3)cc2Sc2cc(C=O)ccc21
photoluminescence quantum yield (in C1CCOC1): 0.67
photoluminescence quantum yield (in CC#N): 0.63
photoluminescence quantum yield (in CCCCCC): 0.57
photoluminescence quantum yield (in CO): 0.23
photoluminescence quantum yield (in CS(C)=O): 0.72
photoluminescence quantum yield (in Cc1ccccc1): 0.62
photoluminescence quantum yield (in ClC(Cl)Cl): 0.59

SMILES: Nc1ccc2c3c(cccc13)C(=O)c1ccccc1-2
photoluminescence quantum yield (in CC#N): 0.1
photoluminescence quantum yield (in CC(C)=O): 0.11
photoluminescence quantum yield (in CC(C)O): 0.03
photoluminescence quantum yield (in CCCCOCCCC): 0.34
photoluminescence quantum yield (in CCOC(C)=O): 0.21
photoluminescence quantum yield (in CCOCC): 0.26
photoluminescence quantum yield (in CO): 0.02
photoluminescence quantum yield (in Cc1ccccc1): 0.3
photoluminescence quantum yield (in Clc1ccccc1): 0.25
photoluminescence quantum yield (in N#Cc1ccccc1): 0.14
photoluminescence quantum yield (in O=C1CCCCC1): 0.15

SMILES: CCOC(=O)COc1ccc(/C=C/C2=C3c4ccccc4C(c4[nH]c(C)cc4C)=[N+]3[B-](F)(F)n3c(C)cc(C)c32)cc1
photoluminescence quantum yield (in C1CCOC1): 0.012
photoluminescence quantum yield (in CC#N): 0.005
photoluminescence quantum yield (in CCCCCC): 0.013
photoluminescence quantum yield (in CO): 0.002
photoluminescence quantum yield (in Cc1ccccc1): 0.012
photoluminescence quantum yield (in ClCCl): 0.014

photoluminescence quantum yield (in CC#N): 0.42
photoluminescence quantum yield (in CCCCCC): 0.61
SMILES: C(=C\c1ccc2ccccc2c1)/c1ccc(N(c2ccccc2)c2ccccc2)cc1

SMILES: N#Cc1c(-n2c3ccccc3c3ccccc32)c(F)c(-n2c3ccccc3c3ccccc32)c(F)c1-n1c2ccccc2c2ccccc21
photoluminescence quantum yield (in Cc1ccccc1): 0.76
photoluminescence quantum yield (in c1ccc([Si](c2ccccc2)(c2ccc(-n3c4ccccc4c4ccccc43)cc2)c2ccc(-n3c4ccccc4c4ccccc43)cc2)cc1): 0.74

photoluminescence quantum yield (in ClCCl): 0.44
SMILES: CCCCCCCCCCOc1ccc(C#Cc2cc3c(C#Cc4ccc(OCCCCCCCCCC)cc4)c(C#Cc4ccc(OCCCCCCCCCC)cc4)c4cc(C#Cc5ccc(OCCCCCCCCCC)cc5)cc5c(C#Cc6ccc(OCCCCCCCCCC)cc6)c(C#Cc6ccc(OCCCCCCCCCC)cc6)c(c2)c3c45)cc1

SMILES: COc1ccc(C2=CC(c3cc(OC)cc(OC)c3)=[O+][B-](F)(F)O2)cc1
photoluminescence quantum yield (in CC#N): 0.02
photoluminescence quantum yield (in CC(C)=O): 0.04
photoluminescence quantum yield (in CCCCCC): 0.25
photoluminescence quantum yield (in Cc1ccccc1): 0.19
photoluminescence quantum yield (in ClCCl): 0.08

photoluminescence quantum yield (in ClCCl): 0.89
SMILES: c1ccc2c(c1)OP1(=NP(Oc3ccc4ccc5cccc6ccc3c4c56)(Oc3ccc4ccc5cccc6ccc3c4c56)=NP(Oc3ccc4ccc5cccc6ccc3c4c56)(Oc3ccc4ccc5cccc6ccc3c4c56)=N1)Oc1ccccc1-2

photoluminescence quantum yield (in C1CCCCC1): 0.92
photoluminescence quantum yield (in CCOC(C)=O): 0.2
SMILES: CC1=[N+]2C(=C(c3ccc(C=O)cc3)c3ccc(C)n3[B-]2(F)F)C=C1c1cc2n(c1)[B-](F)(F)[N+]1=CC=CC1=C2c1c(C)cc(C)cc1C

photoluminescence quantum yield (in CCCCCC): 0.05
SMILES: CC(C)[Si](C#Cc1ccc(C#C[Si](C(C)C)(C(C)C)C(C)C)c2nc3c(ccc4ccccc43)nc12)(C(C)C)C(C)C

photoluminescence quantum yield (in C1CCCCC1): 0.36
photoluminescence quantum yield (in CC#N): 0.14
photoluminescence quantum yield (in ClCCl): 0.24
SMILES: O=S1(=O)c2ccccc2-c2cc(-c3c4ccccc4cc4ccccc34)ccc21

SMILES: CCCCCCC1(CCCCCC)c2cc(-c3nc(-c4ccc5c(c4)C(CCCCCC)(CCCCCC)c4cc(-n6c7ccc(C(C)(C)C)cc7c7cc(C(C)(C)C)ccc76)ccc4-5)nc(-c4ccc5c(c4)C(CCCCCC)(CCCCCC)c4cc(-n6c7ccc(C(C)(C)C)cc7c7cc(C(C)(C)C)ccc76)ccc4-5)n3)ccc2-c2ccc(-n3c4ccc(C(C)(C)C)cc4c4cc(C(C)(C)C)ccc43)cc21
photoluminescence quantum yield (in C1CCOC1): 0.56
photoluminescence quantum yield (in CCCCCC): 1
photoluminescence quantum yield (in Cc1ccccc1): 0.99
photoluminescence quantum yield (in ClCCl): 0.56

photoluminescence quantum yield (in C1COCCO1): 0.53
photoluminescence quantum yield (in CC#N): 0.54
photoluminescence quantum yield (in CCCCO): 0.27
photoluminescence quantum yield (in CCO): 0.07
photoluminescence quantum yield (in CO): 0.1
photoluminescence quantum yield (in O): 0.41
SMILES: O=C(O)c1cc2c(ccc3ccccc32)oc1=O

photoluminescence quantum yield (in ClC(Cl)Cl): 0.61
SMILES: CCCCCCN1C(=O)c2cccc3c(-c4scc5c4OCCO5)ccc(c23)C1=O

photoluminescence quantum yield (in CC#N): 0.041
SMILES: Cc1ccc2nc3[nH]c(=O)[nH]c(=O)c3nc2c1C

photoluminescence quantum yield (in c1cc(-c2cccc(-n3c4ccccc4c4ccccc43)c2)cc(-n2c3ccccc3c3ccccc32)c1): 0.56
SMILES: Cc1cc(C)c2c(c1)c1cc(C)cc(C)c1n2-c1ccc2c(c1)B(c1c(C(C)C)cc(C(C)C)cc1C(C)C)c1cc(-n3c4c(C)cc(C)cc4c4cc(C)cc(C)c43)ccc1N2c1ccccc1

photoluminescence quantum yield (in ClCCl): 0.91
SMILES: N#Cc1ccc(N(c2ccc(C#N)cc2)c2ccc3c4cccc5c(N(c6ccc(C#N)cc6)c6ccc(C#N)cc6)ccc(c6cccc2c63)c54)cc1

photoluminescence quantum yield (in C1CCOC1): 0
SMILES: CCCCCCc1ccsc1-c1ccc2c(c1)C1=[N+]3C2=Cc2c4ccc(-c5sccc5CCCCCC)cc4c4n2[B-]3(Oc2ccccc21)Oc1ccccc1-4 (stereo unspecified)

photoluminescence quantum yield (in ClC(Cl)Cl): 0.94
SMILES: CCCCCCCCC1(CCCCCCCC)c2cc(-c3ccc(C(=O)OC)cc3)ccc2-c2ccc(-c3ccc(C(=O)OC)cc3)cc21

photoluminescence quantum yield (in CC#N): 0.41
SMILES: CCCC(=O)c1c(OCOC)c(OCOC)c(C(=O)CCC)c2c1OCO2

photoluminescence quantum yield (in C1CCOC1): 0.82
SMILES: COC(=O)c1cc2c(cc3ccc4cccc5ccc2c3c45)[nH]1

photoluminescence quantum yield (in CC#N): 0.9
SMILES: Fc1nc(F)c(F)c(C#Cc2cc3c(cc2C#Cc2c(F)c(F)nc(F)c2F)OC2(CCCCC2)O3)c1F

photoluminescence quantum yield (in C1CCOC1): 0.11
photoluminescence quantum yield (in ClCCl): 0.13
SMILES: CCC(CC)COC1=CC2=C3c4cc(OCC(CC)CC)c(-c5ccccc5)n4[B-](F)(F)[n+]4c3n(c3cc(C(C)(C)C)ccc34)[B-](F)(F)[N+]2=C1c1ccccc1

photoluminescence quantum yield (in ClCCl): 0.13
SMILES: CCCCCCOc1cc(/C=C/c2cc(OCCCCCC)c(/C=C/c3cc(OCCCCCC)c(C=C(C#N)C#N)cc3OCCCCCC)cc2OCCCCCC)c(OCCCCCC)cc1C=C(C#N)C#N

photoluminescence quantum yield (in ClCCl): 0.6
SMILES: COc1ccc(N(c2ccc(OC)cc2)c2cc(N(c3ccc(OC)cc3)c3ccc(OC)cc3)c3ccc4cc(C(C)(C)C)cc5ccc2c3c54)cc1

SMILES: O=c1c2ccc(-c3ccc(N(c4ccccc4)c4ccccc4)cc3)cc2sc2cc(-c3ccc(N(c4ccccc4)c4ccccc4)cc3)ccc12
photoluminescence quantum yield (in c1ccc2c(c1)c1ccccc1n2-c1ccc(-c2ccc(-n3c4ccccc4c4ccccc43)cc2)cc1): 0.35

photoluminescence quantum yield (in CC#N): 0.04
photoluminescence quantum yield (in CCCCCC): 0.03
SMILES: CN(C)c1ccc(/C=C/c2ccccc2)cc1

photoluminescence quantum yield (in ClCCl): 0.36
SMILES: C[Si]1(C)c2ccc(C#Cc3ccccc3)cc2C=Cc2cc(C#Cc3ccccc3)ccc21

photoluminescence quantum yield (in C1CCOC1): 0.803
SMILES: CC(C)(C)c1ccc(-c2c(-c3ccc(-n4c5ccccc5c5ccccc54)cc3)c(C#N)c(-c3ccc(-n4c5ccccc5c5ccccc54)cc3)c(-c3ccc(C(C)(C)C)cc3)c2-c2ccc(C(C)(C)C)cc2)cc1

photoluminescence quantum yield (in ClCCl): 0.425
SMILES: COc1ccc2c(c1)CCC1=C(C#Cc3cc4ccccc4c4ccccc34)O[B-](F)(F)[O+]=C12

photoluminescence quantum yield (in CO): 0.16
SMILES: c1ccc(N(c2ccccc2)c2ccc(-c3ncc(-c4ccc(-c5ccc(-c6cnc(-c7ccc(N(c8ccccc8)c8ccccc8)cc7)s6)s5)s4)s3)cc2)cc1

photoluminescence quantum yield (in ClC(Cl)Cl): 0.089
SMILES: CCCCCCN1C(=O)c2cccc3cc(/N=C\c4ccc(N5CCOCC5)cc4)cc(c23)C1=O

photoluminescence quantum yield (in ClCCl): 0.00196
SMILES: CCOC(=O)C1=C(C(=O)OCC)C2(c3cc(Cl)ccc3-c3ccc(Cl)cc32)C2(/C=C/c3ccccc3)c3cc(OC)c(OC)cc3CCN12 (stereo unspecified)

SMILES: COc1cc(C2=c3c(c4ccc(C(C)(C)C)cc4c4cc(C(C)(C)C)ccc34)=[N+]3C2=Nc2c(-c4cc(OC)c(OC)c(OC)c4)c4c5ccc(C(C)(C)C)cc5c5cc(C(C)(C)C)ccc5c4n2[B-]3(F)F)cc(OC)c1OC
photoluminescence quantum yield (in Cc1ccccc1): 0.01

SMILES: Cc1c(C2=[N+]3C(=Cc4c(C)c5ccccc5n4[B-]3(F)F)c3ccccc32)[nH]c2ccccc12
photoluminescence quantum yield (in C1CCOC1): 0.04
photoluminescence quantum yield (in CC#N): 0.04
photoluminescence quantum yield (in CCCCCC): 0.14
photoluminescence quantum yield (in CO): 0.03
photoluminescence quantum yield (in Cc1ccccc1): 0.14
photoluminescence quantum yield (in ClCCl): 0.08
